Assay results reported in patent US11414429B2, “Compound or pharmaceutically acceptable salt thereof” (RIKEN, priority 2016, dated 2022).
Like-named read-outs stand apart in the source and are kept apart here.

What was measured:
[1] = biological target: T1, tankyrase 1 (TNKS 1) (Homo sapiens, UniProt O95271); test: Tankyrase inhibitory activity test (ELISA, self-polyADP ribosylation), tankyrase 1; assay type: biochemical; settings: self-polyADP ribosylation
T1 construct: 1,024-1,327aa; made in house; host or cells: cell-free protein synthesis system
T1 sequence (O95271 1024-1327): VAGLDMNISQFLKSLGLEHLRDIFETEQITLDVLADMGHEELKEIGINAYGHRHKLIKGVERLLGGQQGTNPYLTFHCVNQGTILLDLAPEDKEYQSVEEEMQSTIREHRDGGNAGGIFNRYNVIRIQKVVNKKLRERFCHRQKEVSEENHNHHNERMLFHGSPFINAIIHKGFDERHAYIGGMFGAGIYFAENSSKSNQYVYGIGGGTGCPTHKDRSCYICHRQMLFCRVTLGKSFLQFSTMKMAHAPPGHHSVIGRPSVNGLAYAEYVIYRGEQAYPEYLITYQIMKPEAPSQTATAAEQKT
Outline: (§1)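 IC50 was fitted to residual self-polyADP-ribosylation activity, detected by HRP-streptavidin chemiluminescence. Plate-bound Flag fusions (TNKS1 1,024-1,327aa SAM+PARP; TNKS2 613-1,116aa ANK5+SAM+PARP, cell-free synthesized) saw compound for 10 min at room temperature in 50 mM Tris-HCl pH 8.0, 4 mM MgCl2, 0.2 mM DTT. Reaction with 225 μM NAD/25 μM 6-biotin-17-NAD solution ran 45 min at 30 °C.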

[2] = biological target: T2, tankyrase 2 (TNKS 2) (Homo sapiens, UniProt Q9H2K2); test: Tankyrase inhibitory activity test (ELISA, self-polyADP ribosylation), tankyrase 2; assay type: biochemical; settings: self-polyADP ribosylation
T2 construct: 613-1, 116aa; made in house; host or cells: cell-free protein synthesis system
T2 sequence (Q9H2K2 613-1166): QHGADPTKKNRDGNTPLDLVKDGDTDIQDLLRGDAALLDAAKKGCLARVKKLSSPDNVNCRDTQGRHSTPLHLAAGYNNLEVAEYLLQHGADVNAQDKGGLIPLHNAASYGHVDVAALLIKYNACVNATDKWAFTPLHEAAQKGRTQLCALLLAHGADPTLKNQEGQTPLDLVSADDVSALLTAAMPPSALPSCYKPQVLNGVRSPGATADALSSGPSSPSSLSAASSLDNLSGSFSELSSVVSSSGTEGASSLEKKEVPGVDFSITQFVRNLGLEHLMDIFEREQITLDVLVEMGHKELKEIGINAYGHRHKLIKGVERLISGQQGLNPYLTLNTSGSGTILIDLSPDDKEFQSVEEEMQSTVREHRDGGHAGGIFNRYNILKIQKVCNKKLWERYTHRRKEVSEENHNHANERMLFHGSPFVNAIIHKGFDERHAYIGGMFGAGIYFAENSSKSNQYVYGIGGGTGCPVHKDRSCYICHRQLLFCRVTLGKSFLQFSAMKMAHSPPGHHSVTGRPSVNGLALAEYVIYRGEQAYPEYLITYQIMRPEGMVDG
Outline: as §1

[3] = system: human colorectal cancer cell line, COLO-320DM; test: Cell proliferation inhibitory activity test (Celltiter-Glo Luminescent Cell Viability Assay); assay type: cell-based; settings: COLO-320DM cells, 96 hours
Outline: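 GI50 is taken as the concentration halving cell growth versus 1% DMSO control, measured by ATP luminescence. Compound exposure lasted 96 h at 37° C. under 5% CO2, after overnight seeding in RPMI-1640 with 10% FBS and 2 mM glutamine.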

[4] = tankyrase 1, ELISA, read-out: TNKS1 inhibitory activity (IC50 class)
[5] = tankyrase 2, ELISA, read-out: TNKS2 inhibitory activity (IC50 class)
[6] = read-out: COLO-320 DM cell proliferation inhibitory activity (GI50 class)
[7] = ELISA, class symbols, read-out: TNKS1 (inhibitory activity against tankyrase 1, IC50 value)
[8] = ELISA, class symbols, read-out: TNKS2 (inhibitory activity against tankyrase 2, IC50 value)
[9] = class symbols, read-out: COLO-320 DM (cell proliferation inhibitory activity, GI50 value)

| IC50 [1, 4] [µM] | IC50 [2, 5] [µM] | GI50 [3, 6] [µM] | IC50 [1, 7] [µM] | IC50 [2, 8] [µM] | GI50 [3, 9] [µM] | Structure (SMILES) |
| --- | --- | --- | --- | --- | --- | --- |
| < 0.02 | < 0.02 | 0.1 to 0.6 | – | – | – | CN1CCCc2c1nc(N1CCC3(CC1)C(=O)N(CCO)c1cc(O)cc(F)c13)[nH]c2=O [Example 384, 4-fluoro-6-hydroxy-1-(2-hydroxyethyl)-1′-(8-methyl-4-oxo-3,4,5,6,7,8-hexahydropyrido [2,3-d]pyrimidin-2-yl) spiro[indoline-3,4′-piperidin]-2-one] |
| – | – | – | < 0.02 | < 0.02 | < 0.1 | CN1CCCc2c1nc(N1CCC3(CC1)OC(=O)c1cc(-c4cnn(C)c4)cc(F)c13)[nH]c2=O [Example 450, 4-fluoro-1′-(4-hy-droxy-8-methyl-6,7-dihydro-5H-py-rido[2,3-d]pyrimidin-2-yl)-6-(1-meth-ylpyrazol-4-yl)spiro [2-benzofuran-3,4′-piperidine]-1-one] |
| – | – | – | 0.02 to 0.2 | 0.02 to 0.2 | 0.1 to 0.6 | CN(C)CCOc1cc(F)c2c(c1)N(CC(F)(F)F)C(=O)C21CCN(c2nc3c(c(=O)[nH]2)CCCN3C)CC1 [Example 400, 6-[2-(di-methylamino)ethoxy]-4-fluoro-1′-(8-methyl-4-oxo-3,4,5,6,7,8-hexahydro-pyrido [2,3-d]pyrimidin-2-yl)-1-(2,2,2-trifluoroethyl) spiro[indoline-3,4′-piperidin]-2(1H)-one] |
| < 0.02 | < 0.02 | 0.6 to 1 | – | – | – | CN1CCCc2c1nc(N1CCC3(CC1)C(=O)N(C)c1cc(-c4nc(C(=O)O)co4)cc(Cl)c13)[nH]c2=O [Example 331, 2-{4-chloro-1-methyl-1′-(8-methyl-4-oxo-3,4,5,6,7,8-hexahydro-pyrido[2,3-d]pyrimidin-2-yl)-2-oxospiro [indoline-3,4′-piperidin]-6-yl]oxazole-4-carboxylic acid] |
| < 0.02 | < 0.02 | 0.1 to 0.6 | – | – | – | COc1cc(F)c2c(c1)N(C)C(=O)C21CCN(c2nc3c(c(=O)[nH]2)CCCN3C)CC1 [Example 372, 4-fluoro-6-methoxy-1-methyl-1′-(8-methyl-4-oxo-3,4,5,6,7,8-hexahydropyrido [2,3-d]pyrimidin-2-yl) spiro[indoline-3,4'-piperidin]-2-one] |
| – | – | – | < 0.02 | < 0.02 | 0.1 to 0.6 | CN1CCCc2c1nc(N1CCC3(CC1)C(=O)N(C)c1cc(N4CCC(S(C)(=O)=O)CC4)cc(F)c13)[nH]c2=O [Example 464, 4-fluoro-1-methyl-1′-(8-methyl-4-oxo-3,4,5,6,7,8-hexahydropyrido[2,3-d]pyrimidin-2-yl)l-6-(4-methylsulfonylpiperidin-1-yl)spiro[indole-3,4′-piperidine]-2(1H)-one] |
| – | – | – | 0.02 to 0.2 | < 0.02 | 0.1 to 0.6 | O=C1N(CC2CCCO2)c2cccc(F)c2C12CCN(c1nc3c(c(=O)[nH]1)CCCN3)CC2 (stereo not drawn) [Example 469, 4-fluoro-1′-(4-hydroxy-5,6,7,8-tetrahydroypyrido[2,3-d]pyrimidin-2-yl)-1-(oxolan-2-ylmethyl)spiro[indole-3,4′-piperidine]-2-one] |
| – | – | – | 0.02 to 0.2 | 0.02 to 0.2 | < 0.1 | CN1CCN(CCOc2cc(F)c3c(c2)N(CC(F)(F)F)C(=O)C32CCN(c3nc4c(c(=O)[nH]3)CCCN4C)CC2)CC1 [Example 406, 4-fluoro-1′-(8-methyl-4-oxo-3,4,5,6,7,8-hex-ahydropyrido[2,3-d]pyrimidin-2-yl)-6-[2-(4-methylpiperazin-1-yl)ethoxy]-1-(2,2,2-trifluoroethyl)spiro [indoline-3,4′-piperidin]-2(1H)-one] |
| – | – | – | < 0.02 | < 0.02 | 0.1 to 0.6 | CN1CCCc2c1nc(N1CCC3(CC1)C(=O)N(CC(F)(F)F)c1cc(OCCO)cc(F)c13)[nH]c2=O [Example 399, 4-fluoro-6-(2-hydroxy-ethoxy)-1′-(8-methyl-4-oxo-3,4,5,6,7,8-hexahydro-pyrido [2,3-d]pyri-midin-2-yl)-1-(2,2,2-trifluoroethyl) spiro [indoline-3,4′-piperidin]-2(1H)-one] |
| – | – | – | < 0.02 | < 0.02 | 0.1 to 0.6 | CN1CCCc2c1nc(N1CCC3(CC1)C(=O)N(CCO)c1cc(OCC#N)cc(F)c13)[nH]c2=O [Example 429, {[4-fluoro-1-(2-hydroxy-ethyl)-1′-(8-methyl-4-oxo-3,4,5,6,7,8-hexahydro-pyrido[2,3-d]pyrimidin-2-yl)-2-oxospiro[indoline-3,4′-piperidin]-6-yl]oxy} acetonitrile] |
| – | – | – | < 0.02 | < 0.02 | 0.6 to 1 | CN1CCCc2c1nc(N1CCC3(CC1)C(=O)N(CC(=N)N)c1cc(F)cc(F)c13)[nH]c2=O [Example 430, [4,6-difluoro-1′-(8-methyl-4-oxo-3,4,5,6,7,8-hexahydropyrido[2,3-d]pyrimidin-2-yl)-2-oxospiro[indoline-3,4′-piperidine]-1(2H)-yl]ethanimidamide] |
| 0.02 to 0.2 | < 0.02 | 0.1 to 0.6 | – | – | – | CN1CCCc2c1nc(N1CCC3(CC1)CN(CCO)c1cc(F)cc(F)c13)[nH]c2=O [Example 338, 2-[4,6-difluoro-1-(2-hydroxyethyl)spiro [indoline-3,4′-piperidin]-1′-yl]-8-methyl-5,6,7,8-tetrahydro-pyrido [2,3-d] pyrimidin-4(3H)-one] |
| 0.02 to 0.2 | 0.02 to 0.2 | 0.6 to 1 | – | – | – | CN1CCCc2c1nc(N1CCC3(CC1)C(=O)N(C)c1cc(-c4nc(C(=O)N5CCOCC5)co4)cc(Cl)c13)[nH]c2=O [Example 326, 4-chloro-6-[4-(morpholine-4-carbonyl)-oxazol-2-yl]-1-methyl-1′-(8-methyl-4-oxo-3,4,5,6,7,8-hexahydro-pyrido[2,3-d]-pyrimidin-2-yl)spino-[indoline-3,4′-piperidin]-2-one] |
| < 0.02 | < 0.02 | 0.6 to 1 | – | – | – | CN(C)C(=O)COc1cc(F)c2c(c1)C(=O)OC21CCN(c2nc3c(c(=O)[nH]2)CCCN3C)CC1 [Example 55, 2-{[7-fluoro-1′-(8-methyl-4-oxo-3,4,5,6,7,8-hexahydro-pyrido[2,3-d)pyrimidin-2-yl)-3-oxo-3H-spiro[isobenzo-furan-1,4′-piperidin)-5-yl)oxy}-N,N-dimethyl-acetamid] |
| – | – | – | < 0.02 | < 0.02 | < 0.1 | C[C@@H]1CN(c2cc(F)c3c(c2)N(C)C(=O)C32CCN(c3nc4c(c(=O)[nH]3)CCCN4C)CC2)C[C@H](C)O1 [Example 463, 6-[cis-2,6-dimethylmorpholin-4-yl]-4-fluoro-1′-(8-methyl-4-oxo-3,4,5,6,7,8-hexahydropyrido[2,3-d]pyrimidin-2-yl)-1-methyl-spiro[indole-3,4′-piperidine]-2(1H)-one] |
| – | – | – | < 0.02 | < 0.02 | 0.6 to 1 | COCCN1C(=O)C2(CCN(c3nc4c(c(=O)[nH]3)CCCN4C)CC2)c2c(F)cc(OCCN(C)C)cc21 [Example 405] |
| – | – | – | < 0.02 | < 0.02 | 0.1 to 0.6 | CN1CCCc2c1nc(N1CCC3(CC1)C(=O)N(C)c1cc(N4CCN(C5COC5)CC4)cc(F)c13)[nH]c2=O [Example 398, 4-fluoro-1-methyl-1′-(8-methyl-4-oxo-3,4,5,6,7,8-hexahydro-pyrido [2,3-d]pyrimidin-2-yl)-6-(4-(oxetan-3-yl)piperazin-1-yl)spiro [indoline-3,4′-piperidin]-2(1H)-one] |
| 0.02 to 0.2 | 0.02 to 0.2 | 0.1 to 0.6 | – | – | – | CCOC(=O)c1cc(Cl)c2c(c1)N(Cc1cccnc1)CC21CCN(c2nc3c(c(=O)[nH]2)CCCC3)CC1 [Example 193, ethyl 4-chloro-1′-(4-oxo-3,4,5,6,7,8-hexahydroquinazolin-2-yl)-1-(pyridin-3-yl) methylspiro [indoline-3,4′-piperidine]-6-carboxylate] |

| Structure (SMILES) | IC50 [1, 4] [µM] | IC50 [2, 5] [µM] | GI50 [3, 6] [µM] | IC50 [1, 7] [µM] | IC50 [2, 8] [µM] | GI50 [3, 9] [µM] |
| --- | --- | --- | --- | --- | --- | --- |
| COc1ccc(Cl)c2c1N(CCC(=O)N1CCn3c(C(F)(F)F)cnc3C1)C(=O)C21CCN(c2nc3c(c(=O)[nH]2)CCCN3C)CC1 [Example 445, 4-chloro-1′-(4-hy-droxy-8-methyl-6,7-dihdyro-5H-py-rido[2,3-d]pyrimi-din-2-yl)-7-meth-oxy-1-[3-oxo-3-[3-(trifluoromethyl)-6,8-dihydro-5H-imidazo[1,2-a]py-razin-7-yl]propyl] spiro[indole-3,4′-piperidine]-2-one] | – | – | – | < 0.02 | < 0.02 | 0.1 to 0.6 |
| CN1C(=O)C2(CCN(c3nc4c(c(=O)[nH]3)CCCN4)CC2)c2c(F)ccc(OCC(C)(C)O)c21 [Example 426, 4-fluoro-7-(2-hydroxy-2-methylpropoxy)-1′-(4-hydroxy-5,6,7,8-tetrahydropyrido[2,3-d]pyrimidin-2-yl)-1-methyl-spiro[indole-3,4′-piperidin]-2-one] | – | – | – | < 0.02 | < 0.02 | 0.1 to 0.6 |
| COc1ccc(Cl)c2c1N(CC(C)(C)O)C(=O)C21CCN(c2nc3c(c(=O)[nH]2)CCCN3)CC1 [Example 448] | – | – | – | < 0.02 | < 0.02 | 0.1 to 0.6 |
